# Earlier results as cited in US20110184060A1, “ORAL DOSAGE FORMS HAVING A HIGH LOADING OF A TRANEXAMIC ACID PRODRUG” (XenoPort, Inc., priority 2010, published 2011).
# Where two headings read alike, the source gives them in different places.
# Assays:
# [1] = statement in words, no data given
# [2] = not given; remark: listed apart in the source
# [3] = human subjects, prodrug
smiles,measurement,setting,value
"CC(OC(=O)NC[C@H]1CC[C@H](C(=O)O)CC1)OC(=O)C(C)C (stereo partly drawn) [Compound (1), 4-({[(2-methylpropanoyloxy)ethoxy]carbonylamino}methyl)cyclohexanecarboxylic acid]",oral bioavailability of tranexamic acid,[1],high oral bioavailability of tranexamic acid
"NC[C@H]1CC[C@H](C(=O)O)CC1 [tranexamic acid, trans-4-(aminomethyl)-cyclohexanecarboxylic acid]",oral bioavailability,oral tranexamic acid,about 30%
same,terminal elimination half life,tranexamic acid,about 2 hours
same,reduction of post-operative bleeding,"[2]; cardiopulmonary bypass surgery, prophylactic administration of lysine analogs such as tranexamic acid",30-40%
same,reduction of total blood loss,"[2]; subjects undergoing total knee arthroplasty, prophylactic administration",up to 50%
"CCOC(=O)OC(C)OC(=O)[C@H]1CC[C@H](CN)CC1 (relative stereo) [Kabi 2161, 1-(ethoxycarbonyl)oxyethyl trans-4-(aminomethyl)-cyclohexane carboxylate]",oral bioavailability of tranexamic acid,[3],improved oral bioavailability of tranexamic acid
